In patent publication US20200199102A1, “COMPOUNDS THAT PARTICIPATE IN COOPERATIVE BINDING AND USES THEREOF” (Revolution Medicines, Inc., priority 2017, published 2020):
Where a SMILES comes first, the peptide text is derived from it. [ ]: non-standard residue; d: D form. MeBmt = C/C=C/C[C@@H](C)[C@@H](O)[C@H](NC)C(=O)O; NMeY = CN[C@@H](Cc1ccc(O)cc1)C(=O)O; NMeI = CC[C@H](C)[C@H](NC)C(=O)O; NMeT = CN[C@H](C(=O)O)[C@@H](C)O; NMeL = CN[C@@H](CC(C)C)C(=O)O; NMeNva = CCC[C@H](NC)C(=O)O; NMeV = CN[C@H](C(=O)O)C(C)C; NMeA = CN[C@@H](C)C(=O)O; Abu = CC[C@H](N)C(=O)O; Sar = CNCC(=O)O

Molecular target: T1, Cyclophilin A (Homo sapiens, UniProt P62937)
T1 construct: made in house
Experiment: AlphaLISA inhibition of binding of biotinylated Cyclosporin A to FLAG tagged Cyclophilin A
Settings: for % signal: AlphaLISA signal; for % signal / % inhibition of CsA binding to Cyclophilin A: test concentration not given; for IC50: read-out: IC50 value of CsA binding to Cyclophilin A
How it was run: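 Inhibition of biotin-CsA binding to FLAG-tagged Cyclophilin A read by AlphaLISA (ex 680, em 615 nm). Working stocks were 6 nM biotinylated CsA and 25 nM FLAG-CypA; beads and compound were combined first for 30 min, then protein added for 60 min, all at room temperature in the dark, with DMSO and cyclosporin A controls.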

T1 sequence (P62937 whole entry, species assumed): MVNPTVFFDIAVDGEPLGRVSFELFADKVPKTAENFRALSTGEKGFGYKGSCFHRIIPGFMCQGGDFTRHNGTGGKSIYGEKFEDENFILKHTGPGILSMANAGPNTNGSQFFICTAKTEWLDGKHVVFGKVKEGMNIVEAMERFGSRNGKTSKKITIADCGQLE

SMILES	% signal [%]	IC50 [nM]	% inhibition of CsA binding to Cyclophilin A [%]
C/C=C/C[C@@H](C)[C@@H](O)[C@H]1C(=O)N[C@@H](CC)C(=O)N(C)CC(=O)N(C)[C@@H]([C@@H](C)CC)C(=O)N[C@@H](C(C)C)C(=O)N(C)[C@@H](C)C(=O)N[C@@H](C)C(=O)N[C@H](C)C(=O)N(C)[C@@H](CC(C)C)C(=O)N(C)[C@@H](CC(C)C)C(=O)N(C)[C@@H](C(C)C)C(=O)N1C [Compound C1] (cyclo([MeBmt][Abu][Sar][NMeI]V[NMeA]A[dA][NMeL][NMeL][NMeV]))	0.56	< 2000	99.44
C/C=C/C[C@@H](C)[C@@H](O)[C@H]1C(=O)N[C@@H](CC)C(=O)N(C)CC(=O)N(C)[C@@H]([C@@H](C)CC)C(=O)N[C@@H](C(C)C)C(=O)N(C)[C@@H](CC(C)C)C(=O)N[C@@H](CC(C)C)C(=O)N[C@H](C)C(=O)N(C)[C@@H](CC(C)C)C(=O)N(C)[C@@H](CC(C)C)C(=O)N(C)[C@@H](C(C)C)C(=O)N1C [Compound C45] (cyclo([MeBmt][Abu][Sar][NMeI]V[NMeL]L[dA][NMeL][NMeL][NMeV]))	−0.03	< 2000	100.03
C/C=C/C[C@@H](C)[C@@H](O)[C@H]1C(=O)N[C@@H](CC)C(=O)N(C)CC(=O)N(C)[C@@H](CCC)C(=O)N[C@@H](C(C)C)C(=O)N(C)[C@@H](CC(C)C)C(=O)N[C@@H](CC(C)C)C(=O)N[C@H](C)C(=O)N(C)[C@@H](CC(C)C)C(=O)N(C)[C@@H](CC(C)C)C(=O)N(C)[C@@H](C(C)C)C(=O)N1C [Compound C54] (cyclo([MeBmt][Abu][Sar][NMeNva]V[NMeL]L[dA][NMeL][NMeL][NMeV]))	0.90	< 2000	99.10
C/C=C/C[C@@H](C)[C@@H](O)[C@H]1C(=O)N[C@@H](CC)C(=O)N(C)CC(=O)N(C)[C@@H](CC(C)C)C(=O)N[C@@H](CC(C)C)C(=O)N(C)[C@@H](CC(C)C)C(=O)N[C@@H](CC(C)C)C(=O)N[C@H](C)C(=O)N(C)[C@@H](CC(C)C)C(=O)N(C)[C@@H](CC(C)C)C(=O)N(C)[C@@H](C(C)C)C(=O)N1C [Compound C62] (cyclo([MeBmt][Abu][Sar][NMeL]L[NMeL]L[dA][NMeL][NMeL][NMeV]))	27.12	< 2000	72.88
C/C=C/C[C@@H](C)[C@@H](O)[C@H]1C(=O)N[C@@H](CC)C(=O)N(C)CC(=O)N(C)CC(=O)N[C@@H](C(C)C)C(=O)N(C)[C@@H](C)C(=O)N[C@@H](CC(C)C)C(=O)N[C@H](C)C(=O)N(C)[C@@H](CC(C)C)C(=O)N(C)[C@@H](CC(C)C)C(=O)N(C)[C@@H](C(C)C)C(=O)N1C [Compound C85] (cyclo([MeBmt][Abu][Sar][Sar]V[NMeA]L[dA][NMeL][NMeL][NMeV]))	0.87	< 2000	99.13
C/C=C/C[C@@H](C)[C@@H](O)[C@H]1C(=O)N[C@@H](CC)C(=O)N(C)CC(=O)N(C)[C@@H]([C@@H](C)O)C(=O)N[C@@H](C(C)C)C(=O)N(C)[C@@H](C)C(=O)N[C@@H](CC(C)C)C(=O)N[C@H](C)C(=O)N(C)[C@@H](CC(C)C)C(=O)N(C)[C@@H](CC(C)C)C(=O)N(C)[C@@H](C(C)C)C(=O)N1C [Compound C87] (cyclo([MeBmt][Abu][Sar][NMeT]V[NMeA]L[dA][NMeL][NMeL][NMeV]))	4.53	< 2000	95.47
C/C=C/C[C@@H](C)[C@@H](O)[C@H]1C(=O)N[C@@H](CC)C(=O)N(C)CC(=O)N(C)[C@@H](Cc2ccc(O)cc2)C(=O)N[C@@H](C(C)C)C(=O)N(C)CC(=O)N[C@@H](C)C(=O)N[C@H](C)C(=O)N(C)[C@@H](CC(C)C)C(=O)N(C)[C@@H](CC(C)C)C(=O)N(C)[C@@H](C(C)C)C(=O)N1C [Compound C32] (cyclo([MeBmt][Abu][Sar][NMeY]V[Sar]A[dA][NMeL][NMeL][NMeV]))	0.14	< 2000	99.86
C/C=C/C[C@@H](C)[C@@H](O)[C@H]1C(=O)N[C@@H](CC)C(=O)N(C)CC(=O)N(C)[C@@H](C)C(=O)N[C@@H](CC(C)C)C(=O)N(C)[C@@H](CC(C)C)C(=O)N[C@@H](CC(C)C)C(=O)N[C@H](C)C(=O)N(C)[C@@H](CC(C)C)C(=O)N(C)[C@@H](CC(C)C)C(=O)N(C)[C@@H](C(C)C)C(=O)N1C [Compound C58] (cyclo([MeBmt][Abu][Sar][NMeA]L[NMeL]L[dA][NMeL][NMeL][NMeV]))	3.28	< 2000	96.72
C/C=C/C[C@@H](C)[C@@H](O)[C@H]1C(=O)N[C@@H](CC)C(=O)N(C)CC(=O)N(C)[C@@H]([C@@H](C)CC)C(=O)N[C@@H](CC(C)C)C(=O)N(C)[C@@H](C)C(=O)N[C@@H](C)C(=O)N[C@H](C)C(=O)N(C)[C@@H](CC(C)C)C(=O)N(C)[C@@H](CC(C)C)C(=O)N(C)[C@@H](C(C)C)C(=O)N1C [Compound C9] (cyclo([MeBmt][Abu][Sar][NMeI]L[NMeA]A[dA][NMeL][NMeL][NMeV]))	0.11	< 2000	99.89
C/C=C/C[C@@H](C)[C@@H](O)[C@H]1C(=O)N[C@@H](CC)C(=O)N(C)CC(=O)N(C)[C@@H](CC(C)C)C(=O)N[C@@H](C)C(=O)N(C)CC(=O)N[C@@H](C)C(=O)N[C@H](C)C(=O)N(C)[C@@H](CC(C)C)C(=O)N(C)[C@@H](CC(C)C)C(=O)N(C)[C@@H](C(C)C)C(=O)N1C [Compound C22] (cyclo([MeBmt][Abu][Sar][NMeL]A[Sar]A[dA][NMeL][NMeL][NMeV]))	5.97	< 2000	94.03
C/C=C/C[C@@H](C)[C@@H](O)[C@H]1C(=O)N[C@@H](CC)C(=O)N(C)CC(=O)N(C)[C@@H](CCC)C(=O)N[C@@H](C(C)C)C(=O)N(C)[C@@H](C)C(=O)N[C@@H](CC(C)C)C(=O)N[C@H](C)C(=O)N(C)[C@@H](CC(C)C)C(=O)N(C)[C@@H](CC(C)C)C(=O)N(C)[C@@H](C(C)C)C(=O)N1C [Compound C90] (cyclo([Abu][Sar][NMeNva]V[NMeA]L[dA][NMeL][NMeL][NMeV][MeBmt]))	6.46	< 2000	93.54
C/C=C/C[C@@H](C)[C@@H](O)[C@H]1C(=O)N[C@@H](CC)C(=O)N(C)CC(=O)N(C)CC(=O)N[C@@H](CC(C)C)C(=O)N(C)[C@@H](C)C(=O)N[C@@H](C)C(=O)N[C@H](C)C(=O)N(C)[C@@H](CC(C)C)C(=O)N(C)[C@@H](CC(C)C)C(=O)N(C)[C@@H](C(C)C)C(=O)N1C [Compound C13] (cyclo([MeBmt][Abu][Sar][Sar]L[NMeA]A[dA][NMeL][NMeL][NMeV]))	2.70	< 2000	97.30
C/C=C/C[C@@H](C)[C@@H](O)[C@H]1C(=O)N[C@@H](CC)C(=O)N(C)CC(=O)N(C)[C@@H](Cc2ccc(O)cc2)C(=O)N[C@@H](C(C)C)C(=O)N(C)[C@@H](C)C(=O)N[C@@H](CC(C)C)C(=O)N[C@H](C)C(=O)N(C)[C@@H](CC(C)C)C(=O)N(C)[C@@H](CC(C)C)C(=O)N(C)[C@@H](C(C)C)C(=O)N1C [Compound C88] (cyclo([MeBmt][Abu][Sar][NMeY]V[NMeA]L[dA][NMeL][NMeL][NMeV]))	5.94	< 2000	94.06
C/C=C/C[C@@H](C)[C@@H](O)[C@H]1C(=O)N[C@@H](CC)C(=O)N(C)CC(=O)N(C)[C@@H](C)C(=O)N[C@@H](C(C)C)C(=O)N(C)[C@@H](C)C(=O)N[C@@H](C)C(=O)N[C@H](C)C(=O)N(C)[C@@H](CC(C)C)C(=O)N(C)[C@@H](CC(C)C)C(=O)N(C)[C@@H](C(C)C)C(=O)N1C [Compound C2] (cyclo([MeBmt][Abu][Sar][NMeA]V[NMeA]A[dA][NMeL][NMeL][NMeV]))	5.25	< 2000	94.75
C/C=C/C[C@@H](C)[C@@H](O)[C@H]1C(=O)N[C@@H](CC)C(=O)N(C)CC(=O)N(C)[C@@H](C(C)C)C(=O)N[C@@H](C(C)C)C(=O)N(C)[C@@H](CC(C)C)C(=O)N[C@@H](CC)C(=O)N[C@H](C)C(=O)N(C)[C@@H](CC(C)C)C(=O)N(C)[C@@H](CC(C)C)C(=O)N(C)[C@@H](C(C)C)C(=O)N1C [Compound C101] (cyclo([Abu][Sar][NMeV]V[NMeL][Abu][dA][NMeL][NMeL][NMeV][MeBmt]))	0.15	< 2000	99.85
C/C=C/C[C@@H](C)[C@@H](O)[C@H]1C(=O)N[C@@H](CC)C(=O)N(C)CC(=O)N(C)[C@@H]([C@@H](C)O)C(=O)N[C@@H](C(C)C)C(=O)N(C)[C@@H](C)C(=O)N[C@@H](C)C(=O)N[C@H](C)C(=O)N(C)[C@@H](CC(C)C)C(=O)N(C)[C@@H](CC(C)C)C(=O)N(C)[C@@H](C(C)C)C(=O)N1C [Compound C7] (cyclo([MeBmt][Abu][Sar][NMeT]V[NMeA]A[dA][NMeL][NMeL][NMeV]))	2.65	< 2000	97.35
